Structures can show the parent of a compound that is named as a salt. Where two headings read alike, the source gives them in different places.
What was measured:
[1] = target: T1, full-length human HuR protein (Homo sapiens, UniProt Q15717); experiment: FP assay of HuR-Msi1 ARE binding inhibition; details: HuR-Msi1 ARE interaction; read-out: HuR Ki via FP assay
T1 construct: full-length human HuR protein was produced by the KU COBRE-PSF Protein Purification Group; made in house
Text: A fluorescence polarization (FP)-based binding assay was utilized to assess the inhibition of HuR protein interaction with the ARE site of Msi1 mRNA (“HuR-Msi1^ARE”) by compounds of interest. Briefly, full-length human HuR protein was produced by the KU COBRE-PSF Protein Purification Group and Bcl2, Msi1 and XIAP mRNA sequences (16 nt) were designed based on literature precedent^23,24,31,32. Fluorescein labeled RNAs were purchased from Dharmacon with the following sequences: Msi1 RNA: 5′-[…]-3′-fluorescein; Bcl-2 RNA: 5′-[…]-3′-fluorescein; XIAP RNA: 5′-[…] UGUC-3′-fluorescein, and a 16-nt degenerative RNA with 3′-fluorescein label was used as a negative control.
(§1) With the FP assay of HuR-Msi1ARE binding, the inhibition of the HuR-Msi1ARE interaction by various compounds of the present technology was assessed. Similar FP assays for Musashi 2 (Msi2) and for RNA-binding protein Lin-28 homolog B (LIN28B) were also performed on various compounds of the present technology. The results of such assays for HuR are provided in Table 1 alongside the compound structures as well as ID numbers for ease of reference; the results of such assays for Msi1, Msi2, and LIN28B are provided in Table 2.

[2] = test system: triple-negative breast cancer cell line MDA-MB-231; experiment: Cytotoxicity assay (WST-8), MDA-MB-231; type: cell-based; details: Homo sapiens, 96 h incubation
Procedure: The cytotoxicity of various compounds of the present technology in several cancer cell lines (pancreatic cancer cell line MIAPaCa-2, triple-negative breast cancer cell line MDA-MB-231, and colon cancer cell lines HCT116, HCT116 β/W, and RKO) was assessed by a cytotoxicity assay. Cells were seeded in 96-well culture plates (3,000-5,000 cells/well) and treated with titrated compounds in triplicate. After 96 h incubation, cell growth medium was removed and proliferation reagent WST-8 (Sigma) was added to each well and incubated at 37° C. for 1-3 h. Absorbance was then measured with a plate reader at 450 nm with correction at 650 nm. The results were expressed as the percentage of absorbance of treated wells versus that of vehicle control. IC50, the drug concentration causing 50% growth inhibition, was calculated via sigmoid curve fitting using GraphPad Prism 5.0. The results for those compounds tested against MIAPaCa-2 and MDA-MB-231 are provided in Table 1; the results for those compounds tested against colon cancer cell lines HCT116, HCT116 β/W, and RKO are provided in Table 3.

[3] = target: T2, RNA-binding protein Lin-28 homolog B (LIN28B) (Homo sapiens, UniProt Q6ZN17); experiment: LIN28B FP assay
T2 sequence (Q6ZN17 1-250): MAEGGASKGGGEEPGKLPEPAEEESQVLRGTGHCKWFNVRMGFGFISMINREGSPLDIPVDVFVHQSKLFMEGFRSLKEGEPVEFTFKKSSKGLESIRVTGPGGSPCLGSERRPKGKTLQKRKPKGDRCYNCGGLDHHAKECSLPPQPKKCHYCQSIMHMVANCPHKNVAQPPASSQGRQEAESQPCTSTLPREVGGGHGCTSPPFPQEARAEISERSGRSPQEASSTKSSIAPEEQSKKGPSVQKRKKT
Procedure: as §1

Musashi 2 (Msi2) = Musashi 2 (Msi2) (Homo sapiens, UniProt Q96DH6); experiment: Msi2 FP assay; type: binding
Procedure: as §1

[4] = cell marked (RRM1), read-out: Msi2 (Ki) (RRM1)
[5] = cell without (RRM1) mark, read-out: Msi2 (Ki)

Chain of Musashi 2 (Msi2) (Q96DH6 whole entry, species assumed): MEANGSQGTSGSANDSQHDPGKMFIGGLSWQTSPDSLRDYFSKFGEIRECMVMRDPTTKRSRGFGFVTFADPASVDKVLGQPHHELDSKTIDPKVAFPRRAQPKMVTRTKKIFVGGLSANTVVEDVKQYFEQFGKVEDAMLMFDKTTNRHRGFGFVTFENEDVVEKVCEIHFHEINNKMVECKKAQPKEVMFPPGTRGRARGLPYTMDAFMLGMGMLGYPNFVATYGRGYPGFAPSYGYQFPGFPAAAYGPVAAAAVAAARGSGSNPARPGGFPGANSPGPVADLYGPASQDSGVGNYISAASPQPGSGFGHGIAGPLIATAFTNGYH
T1 sequence (Q15717 whole entry): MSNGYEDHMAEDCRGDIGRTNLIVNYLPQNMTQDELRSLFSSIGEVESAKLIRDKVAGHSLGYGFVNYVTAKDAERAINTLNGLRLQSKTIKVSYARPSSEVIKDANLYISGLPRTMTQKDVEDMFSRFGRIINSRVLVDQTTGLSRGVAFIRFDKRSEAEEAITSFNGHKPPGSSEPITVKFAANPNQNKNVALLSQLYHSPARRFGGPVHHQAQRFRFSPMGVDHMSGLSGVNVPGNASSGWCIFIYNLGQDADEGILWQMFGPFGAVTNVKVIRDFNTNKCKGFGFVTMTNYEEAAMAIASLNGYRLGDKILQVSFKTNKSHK

SMILES | Ki [1] [µM] | IC50 [2] [µM] | Ki [3] [µM] | Ki (Musashi 2 (Msi2); [4]) [µM] | Ki (Musashi 2 (Msi2); [5]) [µM]
CC(C)(C)c1ccc(C(=O)Nc2ccc3[nH]c(C(=O)NN)cc3c2)cc1 [KH-39E, 4-(tert-butyl)-N-(2-(hydrazinecarbonyl)-1H-indol-5-yl)benzamide] | 1.67 | 13.5 | > 20 |  | 
CC(C)(C)c1ccc(C(=O)Nc2ccc3sc(C(=O)NO)cc3c2)cc1 [KH-43, 5-(4-(tert-butyl)benzamido)-N-hydroxybenzo[b]thiophene-2-carboxamide] | 0.44 | 3.71 | 2.7 | 2.9 | 
CC(C)(C)c1ccc(C(=O)Nc2ccc3sc(C(=O)O)cc3c2)cc1 [KH-43A, 5-(4-(tert-butyl)benzamido)benzo[b]thiophene-2-carboxylic acid] | 5.08 | 90.5 | > 20 | 5.25 | 
O=C(/C=C/c1cc2cc(NC(=O)C3CCCCC3)ccc2s1)NO [KH-46, (E)-N-(2-(3-(hydroxyamino)-3-oxoprop-1-en-1-yl)benzo[b]thiophen-5-yl) cyclohexanecarboxamide] | 1.29 | 3.5 | 5.84 |  | > 20
O=C(O)/C=C/c1cc2cc(NC(=O)C3CCCCC3)ccc2s1 [KH-46A, (E)-3-(5-(cyclohexanecarboxamido)benzo[b]thiophen-2-yl)acrylic acid] | 4.27 | > 100 | > 20 |  | > 20
O=C(/C=C/c1cc2cc(NC(=O)c3ccccn3)ccc2s1)NO [KH-47, (E)-N-(2-(3-(hydroxyamino)-3-oxoprop-1-en-1-yl)benzo[b]thiophen-5-yl) picolinamide hydrochloride] | 4.44 | 3.11 | > 20 |  | > 20
O=C(O)/C=C/c1cc2cc(NC(=O)c3ccccn3)ccc2s1 [KH-47A, (E)-3-(5-(picolinamido)benzo[b]thiophen-2-yl)acrylic acid hydrochloride] | 1.81 | 18.2 | > 20 | 6.8 | 
CC(C)(C)c1ccc(C(=O)Nc2ccc3[nH]c(/C=C/C(=O)NO)cc3c2)cc1 [KH-48, (E)-4-(tert-butyl)-N-(2-(3-(hydroxyamino)-3-oxoprop-1-en-1-yl)-1H-indol-5-yl)benzamide] | 0.34 | 2.24 | 8.79 | 3.91 | 
CC(C)(C)c1ccc(C(=O)Nc2ccc3[nH]c(/C=C/C(=O)O)cc3c2)cc1 [KH-48A, (E)-3-(5-(4-(tert-butyl)benzamido)-1H-indol-2-yl)acrylic acid] | 3.35 | > 100 | > 20 | 4.8 | 
CN(C)c1ccc(C(=O)Nc2ccc3[nH]c(/C=C/C(=O)NO)cc3c2)cc1 [KH-52, (E)-4-(dimethylamino)-N-(2-(3-(hydroxyamino)-3-oxoprop-1-en-1-yl)-1H-indol-5-yl)benzamide] | 0.69 | 8.91 | > 20 |  | > 20
CN(C)c1ccc(C(=O)Nc2ccc3[nH]c(/C=C/C(=O)O)cc3c2)cc1 [KH-52A, (E)-3-(5-(4-(dimethylamino)benzamido)-1H-indol-2-yl)acrylic acid] | 7.76 | > 100 | > 20 | 27.1 | 
O=C(Nc1ccc2[nH]c(C(=O)O)cc2c1)c1ccccn1 [KH-56A, 5-(picolinamido)-1H-indole-2-carboxylic acid hydrochloride] | > 20 | > 100 | > 20 |  | > 20
CN(C)c1ccc(C(=O)Nc2ccc3[nH]c(C(=O)NO)cc3c2)cc1 [KH-57, 5-(4-(dimethylamino)benzamido)-N-hydroxy-1H-indole-2-carboxamide] | 3.31 | 11.3 | > 20 |  | > 20
CN(C)c1ccc(C(=O)Nc2ccc3[nH]c(C(=O)O)cc3c2)cc1 [KH-57A, 5-(4-(dimethylamino)benzamido)-1H-indole-2-carboxylic acid] | 0.78 | 100 | > 20 | 2.1 | 
